Read-outs that look alike come from different tables or passages of the source.

Experiment [1] deals with pre-miR-21. Description: cat-ELCCA for Dicer-mediated pre-miRNA maturation. It is filed as biochemical. Conditions: for hit in HTS for inhibition of Dicer-mediated pre-miR-21 maturation: primary and confirmation screens at 25 µM, CRCs from 3.3 to 120 µM.
The subject of experiment [2] is pre-miR-21. Conditions: previously shown; cited from earlier work.

For `NC[C@H]1O[C@H](O[C@H]2[C@H](O)[C@@H](O[C@H]3O[C@H](CO)[C@@H](O)[C@H](N)[C@H]3O)[C@H](N)C[C@@H]2N)[C@H](O)[C@@H](O)[C@@H]1O` [kanamycin], the “inhibition of Dicer-mediated pre-miR-21 maturation” value with pre-miR-21 [1] (data not shown) is “do not inhibit”.

As for `C=C1c2c(Cl)ccc(O)c2C(=O)C2=C(O)[C@]3(O)C(=O)C(C(N)=O)=C(O)[C@@H](N(C)C)[C@@H]3[C@@H](O)[C@H]12` [meclocycline], the “hit in HTS for inhibition of Dicer-mediated pre-miR-21 maturation” value (shortened to “hit in HTS for inhibition”) in the experiment with pre-miR-21 [1] is reported as “emerged as hits”.

Regarding `C=C1c2cccc(O)c2C(=O)C2=C(O)[C@]3(O)C(=O)C(C(N)=O)=C(O)[C@@H](N(C)C)[C@@H]3[C@@H](O)[C@H]12` [methacycline], the “hit in HTS for inhibition” value in the experiment with pre-miR-21 [1] was “emerged as hits”.

As for `CN(C)c1ccc(O)c2c1C[C@H]1C[C@H]3[C@H](N(C)C)C(O)=C(C(N)=O)C(=O)[C@@]3(O)C(O)=C1C2=O` [minocycline], the “hit in HTS for inhibition” value with pre-miR-21 [1] was “emerged as hits”.

For the molecule `[H]/N=C(/N)N[C@H]1[C@H](O)[C@@H](O)[C@H](O[C@@H]2O[C@@H](C)[C@](O)(C=O)[C@H]2O[C@@H]2O[C@@H](CO)[C@H](O)[C@@H](O)[C@@H]2NC)[C@@H](N/C(N)=N\[H])[C@@H]1O` [streptomycin], the “inhibition of Dicer-mediated pre-miR-21 maturation” value in the experiment on pre-miR-21 [2] is given as “do not inhibit”.

The values above are taken from paper PMC5797708 (SLAS discovery : advancing life sciences R & D, 2017).
